Measurements as given in patent US9238647B2, “P2X3 receptor antagonists for treatment of pain” (Merck Sharp & Dohme Corp., priority 2009, dated 2016).

Biological target: T1, human P2X3 (Homo sapiens, UniProt P56373)
T1 construct: expressed in transfected cells
T1 sequence (P56373 1-397): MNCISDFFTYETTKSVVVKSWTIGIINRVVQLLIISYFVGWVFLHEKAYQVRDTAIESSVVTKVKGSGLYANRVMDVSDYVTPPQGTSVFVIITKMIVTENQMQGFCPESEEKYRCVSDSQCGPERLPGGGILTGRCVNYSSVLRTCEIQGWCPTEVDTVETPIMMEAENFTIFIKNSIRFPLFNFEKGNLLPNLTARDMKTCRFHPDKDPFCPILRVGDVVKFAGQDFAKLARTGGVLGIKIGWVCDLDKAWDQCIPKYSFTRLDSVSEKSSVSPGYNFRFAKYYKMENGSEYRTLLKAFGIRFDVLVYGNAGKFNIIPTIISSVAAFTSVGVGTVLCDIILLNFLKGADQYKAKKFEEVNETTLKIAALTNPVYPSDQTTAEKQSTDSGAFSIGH
Assay: Intracellular Calcium Measurement to Assess Antagonist Affinity (FLIPR, Fluo-4, α,β-meATP agonist)
Format: cell-based
Settings: cells expressing human P2X3; agonist α,β-meATP at EC50; antagonist added 10 min before agonist
Description: Generation of a Human P2X3 and P2X2/3 Stable Cell Line—Human P2X3 receptor cDNA (Accession number NM_002559) was subcloned as a 5′XhoI and 3′HindIII fragment into the expression vector pcDNA5/FRT (Invitrogen). Human P2X2 receptor cDNA (Accession number NM_174873) was subcloned as a 5′EcoRI and 3′NotI fragment into the expression vector pIRESneo2 (BD Biosciences Clontech). The human P2X3 expression construct was transfected using Lipofectamine 2000 (Invitrogen) into Flp-in-293 cells (Invitrogen) according to the manufacturer's directions. Cells positive for flp-mediated recombination of […] P2X3 were selected using 150 μg/ml hygromycin. […]
Intracellular Calcium Measurement to Assess Antagonist Affinity—A fluorescent imaging plate reader (FLIPR; Molecular Devices) was used to monitor intracellular calcium levels using the calcium-chelating dye Fluo-4 (Molecular Probes). The excitation and emission wavelengths used to monitor fluorescence were 488 nm and 530 nm, respectively. […] During this period fluorescence data is collected at 3 sec intervals followed by 10 sec intervals. […] Following agonist addition fluorescence was measured at 5 sec intervals and analyzed based on the increase in peak relative fluorescence units (RFU) compared to the basal fluorescence. […]

IC50: 200 nM
Structure (SMILES): Cc1ccc(-c2cc(C(=O)N[C@H](C)c3ccc(C(F)(F)F)nc3)cc3nncn23)cc1 [Example 4.3, 5-(4-Methylphenyl)-N-{(1R)-1-[6-(trifluoromethyl)pyridin-3-yl]ethyl}[1,2,4]triazolo[4,3-a]pyridine-7-carboxamide]
